The record followed here is ChEMBL document CHEMBL1201862, “PubChem BioAssay data set” (2004).

Each structure is given as a SMILES string.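 Step 1: Grow cells in 96-well plates. Step 2: Expose to compound for 48 hours at 5 concentrations. Step 3: Interpolate endpoints linearly; if unreached, use highest concentration. At the GI50, growth is halved.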 Calls of active or inactive are those of the source. No stated cut-off is given here; in the data, active = GI50 up to about 1.1 µM and inactive = higher.

Among the test systems are Malme-3M; SNB-78; LOX IMVI; ACHN; A498; U-251; NCI-H226; LXFL 529; NCI-H522; A549; DMS-273; OVCAR-8; SK-MEL-28; K562; MOLT-4; SK-MEL-2.
Holding throughout (experiment): inhibition of tumour cell growth, NCI panel, 48 h

`Cc1cc(C)nc(NS(=O)(=O)c2ccc(Nc3c4ccccc4nc4c(C(=O)Nc5ccc(S(=O)(=O)Nc6cc(C)on6)cc5)cccc34)cc2)n1`: the GI50 is 24.2 µM (inactive) with Malme-3M; 30.9 µM (inactive) in the assay on SNB-78; 19.8 µM (inactive) in the assay with LOX IMVI; 35.2 µM (inactive) with ACHN; 19.2 µM (inactive) with A498; 19.8 µM (inactive) in the assay with U-251. Besides, the GI50 was 21 µM (inactive) with NCI-H226; 17.9 µM (inactive) in the assay with LXFL 529; 14.7 µM (inactive) in the assay on NCI-H522; 34.7 µM (inactive) in the assay with A549; 23.8 µM (inactive) in the assay on DMS-273; 18.4 µM (inactive) in the assay with OVCAR-8. Also, the GI50 is 23.6 µM (inactive) with SK-MEL-28, 23.2 µM (inactive) in the assay with K562 and 24.8 µM (inactive) with MOLT-4.

`CC(C)[C@@H](C)CC[C@@H](C)C1CC=C2[C@@H]3CCC4C[C@@H](O[Si](C)(C)C(C)(C)C)CC[C@]4(C)C3CC[C@@]21C` (some centres not stated): the GI50 with Malme-3M, in the assay with SNB-78, in the assay on ACHN, with A498, with U-251 and with NCI-H226 was > 100 µM (inactive) throughout. The GI50 in the assay on LXFL 529, in the assay with NCI-H522, in the assay with A549, in the assay on SK-MEL-2, in the assay with DMS-273 and with OVCAR-8 was > 100 µM (inactive) throughout. In addition, the GI50 in the assay with SK-MEL-28, with K562 and in the assay on MOLT-4 was > 100 µM (inactive) in each case.

Regarding `CCCCCCCC/C=C/CCCCCCCC(=O)N(O)C1CC(n2cc(C)c(=O)[nH]c2=O)OC1CO` (configuration not stated), the GI50 in the assay on Malme-3M is 9.71 µM (inactive); with SNB-78, 18 µM (inactive); in the assay on LOX IMVI, 4.9 µM (inactive); in the assay with ACHN, 6.03 µM (inactive); in the assay with A498, 18.3 µM (inactive); in the assay with U-251, 4.89 µM (inactive). The GI50 in the assay with LXFL 529 was 10.6 µM (inactive); with NCI-H522 it was 7.76 µM (inactive); in the assay with A549 it was 19 µM (inactive); with SK-MEL-2, 13.7 µM (inactive); in the assay with DMS-273, 5.07 µM (inactive); in the assay with OVCAR-8, 11.4 µM (inactive). Further, the GI50 in the assay with SK-MEL-28 was 4.51 µM (inactive); in the assay on K562, 0.488 µM (active); in the assay on MOLT-4 it was 4.41 µM (inactive).

Consider `CCC1(O)C[C@H]2CN(CCCc3c([nH]c4ccccc34)[C@@](C(=O)OC)(c3cc4c(cc3OC)N(C)C3[C@](O)(C(=O)OC)[C@H](OC(C)=O)[C@]5(CC)C=CCN6CC[C@]43[C@H]65)C2)C1` (some centres not stated), for which the GI50 with Malme-3M was 0.977 µM (active); in the assay on SNB-78 it was 0.543 µM (active); with LOX IMVI, 0.583 µM (active); with ACHN, > 2.92 µM (inactive); in the assay on A498 it was 1.21 µM (inactive); in the assay with U-251 it was 0.565 µM (active). Besides, the GI50 is 0.581 µM (active) in the assay with LXFL 529; 0.194 µM (active) in the assay on NCI-H522; 1.46 µM (inactive) with A549; 0.63 µM (active) in the assay with SK-MEL-2; 0.406 µM (active) in the assay with DMS-273; 2.96 µM (inactive) with OVCAR-8. Also, the values for the GI50 with SK-MEL-28, with K562 and in the assay with MOLT-4 were 3.56 µM (inactive), 0.354 µM (active) and 0.586 µM (active), respectively.

In the case of `CC(C)c1cccc(C(C)C)c1NC(=O)C(=O)C1CCC2=C(Sc3ccccc3N2)C1=O` (configuration not stated), the GI50 in the assay with Malme-3M was > 100 µM (inactive); in the assay on SNB-78, > 100 µM (inactive); in the assay with LOX IMVI, 53.6 µM (inactive); in the assay with ACHN, > 100 µM (inactive); in the assay on A498, > 100 µM (inactive); with U-251, 34.8 µM (inactive). Moreover, the GI50 in the assay on NCI-H226 is 29.4 µM (inactive); with LXFL 529, 44.2 µM (inactive); in the assay on A549, > 100 µM (inactive); with SK-MEL-2 it was > 100 µM (inactive); in the assay with DMS-273 it was 40.5 µM (inactive); in the assay with OVCAR-8, 38.7 µM (inactive). Also, the results for the GI50 in the assay with SK-MEL-28, with K562 and with MOLT-4 were > 100 µM (inactive), 34.9 µM (inactive) and 43.7 µM (inactive), respectively.

On to `COc1cccc2c1C(=O)c1c(O)c3c(c(O)c1C2=O)C[C@@](O)(C(C)=O)CC3S(=O)(=O)O` (some centres not stated), for which the GI50 is > 100 µM (inactive) in the assay with Malme-3M; > 94.2 µM (inactive) in the assay on SNB-78; > 100 µM (inactive) with LOX IMVI; > 100 µM (inactive) with ACHN; > 100 µM (inactive) in the assay on A498; > 100 µM (inactive) in the assay on U-251. Moreover, the GI50 in the assay on NCI-H226, in the assay on LXFL 529, in the assay with NCI-H522, in the assay on A549, in the assay with SK-MEL-2 and in the assay with DMS-273 was > 100 µM (inactive) in each case. The GI50 in the assay with OVCAR-8, in the assay on SK-MEL-28, in the assay on K562 and in the assay with MOLT-4 was > 100 µM (inactive) in each case.

`COc1ccccc1/N=N/c1c(-c2ccccc2)nn(C(=O)CC(=O)Nc2ccccc2Cl)c1-c1ccccc1`: the GI50 in the assay on Malme-3M, with SNB-78, in the assay with LOX IMVI, in the assay with ACHN, with A498 and in the assay with U-251 was > 100 µM (inactive) in each case. Further, the GI50 in the assay on NCI-H226, with LXFL 529, in the assay on NCI-H522, in the assay on A549, with DMS-273 and in the assay on OVCAR-8 was > 100 µM (inactive) throughout. The GI50 was > 100 µM (inactive) in the assay on SK-MEL-28, > 100 µM (inactive) in the assay on K562 and 81.8 µM (inactive) in the assay with MOLT-4.

For the compound `C=CCCC(=O)CC(=O)OCc1ccccc1`, the GI50 with Malme-3M, with SNB-78, in the assay with LOX IMVI, in the assay with ACHN, in the assay on A498 and in the assay with U-251 was > 100 µM (inactive) each time. The GI50 in the assay with LXFL 529, in the assay with A549, in the assay on SK-MEL-2, in the assay on DMS-273, in the assay with OVCAR-8 and in the assay on K562 was > 100 µM (inactive) each time. Moreover, the GI50 in the assay on MOLT-4 is > 100 µM (inactive).

For `CC1=CCC2(C#N)CCC1C2O` (configuration not stated), the GI50 in the assay with Malme-3M, in the assay on SNB-78, in the assay with LOX IMVI, in the assay with ACHN, in the assay with A498 and in the assay on U-251 was > 100 µM (inactive) in each case. The GI50 is > 100 µM (inactive) with NCI-H226; > 100 µM (inactive) with LXFL 529; > 100 µM (inactive) in the assay with NCI-H522; > 100 µM (inactive) with A549; > 100 µM (inactive) in the assay with SK-MEL-2; 19.7 µM (inactive) in the assay on DMS-273. In addition, the GI50 in the assay on OVCAR-8, in the assay on SK-MEL-28, in the assay on K562 and with MOLT-4 was > 100 µM (inactive) in each case.

For `CC1=C[C@]2(O)C(=O)[C@H](C)C[C@H]3[C@@H](CC[C@@](C)(O)/C=C\2C1=O)C3(C)C`, the GI50 with Malme-3M is 22.8 µM (inactive); with SNB-78, 26.2 µM (inactive); with LOX IMVI, 17.3 µM (inactive); in the assay on ACHN it was 22.4 µM (inactive); with A498, 27.4 µM (inactive); in the assay on U-251, 21.7 µM (inactive). In addition, the GI50 was 33.7 µM (inactive) in the assay on NCI-H226; 16.8 µM (inactive) in the assay on LXFL 529; 13.7 µM (inactive) in the assay with NCI-H522; 35.5 µM (inactive) with A549; 17.9 µM (inactive) in the assay on SK-MEL-2; 22.4 µM (inactive) in the assay on DMS-273. The GI50 in the assay on OVCAR-8 is 20.5 µM (inactive); with SK-MEL-28 it was 18.5 µM (inactive); in the assay on K562 it was > 100 µM (inactive); with MOLT-4 it was 17.9 µM (inactive).

As for `N#CC(Nc1cccc(C(F)(F)F)c1)c1ccccc1C(F)(F)F` (configuration not stated), the GI50 is 7.33 µM (inactive) with Malme-3M; 20.1 µM (inactive) in the assay with SNB-78; 5.51 µM (inactive) with LOX IMVI; 14.5 µM (inactive) in the assay on ACHN; 19.1 µM (inactive) in the assay with A498; 16.9 µM (inactive) in the assay with U-251. For the same compound, the GI50 in the assay with NCI-H226 is 15.9 µM (inactive); in the assay on LXFL 529, 6.17 µM (inactive); in the assay on NCI-H522 it was 6.71 µM (inactive); with A549, 15.3 µM (inactive); in the assay on SK-MEL-2, 7.21 µM (inactive); in the assay on DMS-273, 8.04 µM (inactive). Also, the GI50 in the assay with OVCAR-8 was 16.3 µM (inactive); in the assay with SK-MEL-28, 17.9 µM (inactive); in the assay with K562, 14.5 µM (inactive); with MOLT-4 it was 14.6 µM (inactive).

For `CCCNC(=O)Nc1c([N+](=O)[O-])cc(C(F)(F)F)cc1[N+](=O)[O-]`, the GI50 was 82.8 µM (inactive) with SNB-78; 62.8 µM (inactive) in the assay with LOX IMVI; 89.9 µM (inactive) with ACHN; > 100 µM (inactive) with A498; > 100 µM (inactive) with U-251; > 100 µM (inactive) in the assay on NCI-H226. Moreover, the GI50 in the assay on LXFL 529 is 55.2 µM (inactive); in the assay with NCI-H522, 31.3 µM (inactive); with A549, 58.6 µM (inactive); in the assay with SK-MEL-2 it was > 100 µM (inactive); with DMS-273, > 100 µM (inactive); in the assay with OVCAR-8, 74.3 µM (inactive). For the same compound, the GI50 was > 100 µM (inactive) with SK-MEL-28, 47.1 µM (inactive) with K562 and > 100 µM (inactive) in the assay on MOLT-4.
